# Measured values published in PubChem BioAssay AID1259407 (Chemical Carcinogenesis Research Information System (CCRIS), 2018).
# The source made the active and inactive calls. The rule behind the calls is not given here.
# Test system: CCRIS mutagenicity, Ames/micronucleus/aberration tests
# Experiment: CCRIS mutagenicity studies
# [1] = Test System: AMES SALMONELLA TYPHIMURIUM, Strain/Indicator: TA98, Metabolic Activation: NONE, Method: STANDARD PLATE
# [2] = Test System: AMES SALMONELLA TYPHIMURIUM, Strain/Indicator: TA100, Metabolic Activation: NONE, Method: STANDARD PLATE
# [3] = Test System: AMES SALMONELLA TYPHIMURIUM, Strain/Indicator: TA98, Metabolic Activation: NONE, Method: PREINCUBATION
# [4] = Test System: AMES SALMONELLA TYPHIMURIUM, Strain/Indicator: TA98, Metabolic Activation: RAT, LIVER, S-9, KANECHLOR 500, Method: PREINCUBATION
# [5] = Test System: AMES SALMONELLA TYPHIMURIUM, Strain/Indicator: TA100, Metabolic Activation: RAT, LIVER, S-9, KANECHLOR 500, Method: PREINCUBATION
# [6] = Test System: AMES SALMONELLA TYPHIMURIUM, Strain/Indicator: TA98, Metabolic Activation: HAMSTER, LIVER, S-9, AROCLOR 1254 (10%), Method: PREINCUBATION
# [7] = Test System: AMES SALMONELLA TYPHIMURIUM, Strain/Indicator: TA98, Metabolic Activation: RAT, LIVER, S-9, AROCLOR 1254 (10%), Method: PREINCUBATION
# [8] = Test System: AMES SALMONELLA TYPHIMURIUM, Strain/Indicator: TA100, Metabolic Activation: HAMSTER, LIVER, S-9, AROCLOR 1254 (10%), Method: PREINCUBATION
# [9] = Test System: AMES SALMONELLA TYPHIMURIUM, Strain/Indicator: TA100, Metabolic Activation: NONE, Method: PREINCUBATION
# [10] = Test System: AMES SALMONELLA TYPHIMURIUM, Strain/Indicator: TA100, Metabolic Activation: RAT, LIVER, S-9, AROCLOR 1254 (10%), Method: PREINCUBATION
# [11] = Test System: AMES SALMONELLA TYPHIMURIUM, Strain/Indicator: TA1535, Metabolic Activation: HAMSTER, LIVER, S-9, AROCLOR 1254 (10%), Method: PREINCUBATION
# [12] = Test System: AMES SALMONELLA TYPHIMURIUM, Strain/Indicator: TA1535, Metabolic Activation: NONE, Method: PREINCUBATION
# [13] = Test System: AMES SALMONELLA TYPHIMURIUM, Strain/Indicator: TA1535, Metabolic Activation: RAT, LIVER, S-9, AROCLOR 1254 (10%), Method: PREINCUBATION
# [14] = Test System: AMES SALMONELLA TYPHIMURIUM, Strain/Indicator: TA1537, Metabolic Activation: HAMSTER, LIVER, S-9, AROCLOR 1254 (10%), Method: PREINCUBATION
# [15] = Test System: AMES SALMONELLA TYPHIMURIUM, Strain/Indicator: TA1537, Metabolic Activation: NONE, Method: PREINCUBATION
# [16] = Test System: AMES SALMONELLA TYPHIMURIUM, Strain/Indicator: TA1537, Metabolic Activation: RAT, LIVER, S-9, AROCLOR 1254 (10%), Method: PREINCUBATION
structure (smiles),measurement,setting,value
CC(=O)C(Cl)(Cl)Cl,mutagenic call,[1],active; positive
same,mutagenic call,"Test System: AMES SALMONELLA TYPHIMURIUM, Strain/Indicator: TA98, Metabolic Activation: RAT, LIVER, S-9, AROCLOR 1254, Method: STANDARD PLATE",active; positive
same,mutagenic call,"Test System: AMES SALMONELLA TYPHIMURIUM, Strain/Indicator: TA100, Metabolic Activation: NONE, Method: FLUCTUATION TEST",active; positive
same,mutagenic call,[2],active; positive
same,mutagenic call,"Test System: AMES SALMONELLA TYPHIMURIUM, Strain/Indicator: TA100, Metabolic Activation: RAT, LIVER, S-9, AROCLOR 1254, Method: FLUCTUATION TEST",inactive; negative
same,mutagenic call,"Test System: AMES SALMONELLA TYPHIMURIUM, Strain/Indicator: TA100, Metabolic Activation: RAT, LIVER, S-9, AROCLOR 1254, Method: STANDARD PLATE",active; positive
same,mutagenic call,"Test System: AMES SALMONELLA TYPHIMURIUM, Strain/Indicator: TA1535, Metabolic Activation: NONE, Method: STANDARD PLATE",active; positive
same,mutagenic call,"Test System: AMES SALMONELLA TYPHIMURIUM, Strain/Indicator: TA1535, Metabolic Activation: RAT, LIVER, S-9, AROCLOR 1254, Method: STANDARD PLATE",active; positive
same,mutagenic call,"Test System: AMES SALMONELLA TYPHIMURIUM, Strain/Indicator: TA1537, Metabolic Activation: NONE, Method: STANDARD PLATE",inactive; negative
same,mutagenic call,"Test System: AMES SALMONELLA TYPHIMURIUM, Strain/Indicator: TA1537, Metabolic Activation: RAT, LIVER, S-9, AROCLOR 1254, Method: STANDARD PLATE",inactive; negative
COC(=O)[C@H]1CS[C@H]2C(Cl)=C(Cl)C(=O)N12,mutagenic call,[2],active; positive
O=Cc1ccc(CO)o1,mutagenic call,"End Point: In vivo micronucleus, Test System: Peripheral blood normochromatic erythrocytes, Species: Mouse, Strain/Sex: B6C3F1/Female, Route: Oral",inactive; negative
same,mutagenic call,"End Point: In vivo micronucleus, Test System: Peripheral blood normochromatic erythrocytes, Species: Mouse, Strain/Sex: B6C3F1/Male, Route: Oral",inactive; negative
same,mutagenic call,[1],inactive; negative
same,mutagenic call,"Test System: AMES SALMONELLA TYPHIMURIUM, Strain/Indicator: TA98, Metabolic Activation: S-9, Method: STANDARD PLATE",active; positive
same,mutagenic call,[2],inactive; negative
same,mutagenic call,"Test System: AMES SALMONELLA TYPHIMURIUM, Strain/Indicator: TA100, Metabolic Activation: S-9, Method: STANDARD PLATE",active; positive
same,mutagenic call,"Test System: AMES SALMONELLA TYPHIMURIUM, Strain/Indicator: TA104, Metabolic Activation: NONE, Method: PREINCUBATION",inactive; negative
same,mutagenic call,"Test System: Ames Salmonella typhimurium, Strain/Indicator: TA97, Metabolic Activation: Hamster, Liver, S-9, Aroclor 1254 (10 and 30%), Method: Preincubation",inactive; negative
same,mutagenic call,"Test System: Ames Salmonella typhimurium, Strain/Indicator: TA97, Metabolic Activation: None, Method: Preincubation",inactive; negative
same,mutagenic call,"Test System: Ames Salmonella typhimurium, Strain/Indicator: TA97, Metabolic Activation: Rat, Liver, S-9, Aroclor 1254 (10 and 30%), Method: Preincubation",inactive; negative
same,mutagenic call,"Test System: Ames Salmonella typhimurium, Strain/Indicator: TA98, Metabolic Activation: Hamster, Liver, S-9, Aroclor 1254 (10 and 30%), Method: Preincubation",inactive; negative
same,mutagenic call,"Test System: Ames Salmonella typhimurium, Strain/Indicator: TA98, Metabolic Activation: None, Method: Preincubation",inactive; negative
same,mutagenic call,"Test System: Ames Salmonella typhimurium, Strain/Indicator: TA98, Metabolic Activation: Rat, Liver, S-9, Aroclor 1254 (10 and 30%), Method: Preincubation",inactive; negative
same,mutagenic call,"Test System: Ames Salmonella typhimurium, Strain/Indicator: TA98, Metabolic Activation: Rat, Liver, S-9, Aroclor 1254,10%, Method: Preincubation",inactive; negative
same,mutagenic call,"Test System: Ames Salmonella typhimurium, Strain/Indicator: TA100, Metabolic Activation: Hamster, Liver, S-9, Aroclor 1254 (10 and 30%), Method: Preincubation",inactive; negative
same,mutagenic call,"Test System: Ames Salmonella typhimurium, Strain/Indicator: TA100, Metabolic Activation: Rat, Liver, S-9, Aroclor 1254 (10 and 30%), Method: Preincubation",inactive; negative
same,mutagenic call,"Test System: Ames Salmonella typhimurium, Strain/Indicator: TA100, Metabolic Activation: Rat, Liver, S-9, Aroclor 1254,10%, Method: Preincubation",inactive; negative
same,mutagenic call,"Test System: Ames Salmonella typhimurium, Strain/Indicator: TA102, Metabolic Activation: Hamster, Liver, S-9, Aroclor 1254 (10 and 30%), Method: Preincubation",inactive; negative
same,mutagenic call,"Test System: Ames Salmonella typhimurium, Strain/Indicator: TA102, Metabolic Activation: None, Method: Preincubation",inactive; negative
same,mutagenic call,"Test System: Ames Salmonella typhimurium, Strain/Indicator: TA102, Metabolic Activation: Rat, Liver, S-9, Aroclor 1254 (10 and 30%), Method: Preincubation",inactive; negative
same,mutagenic call,"Test System: Ames Salmonella typhimurium, Strain/Indicator: TA1535, Metabolic Activation: None, Method: Preincubation",inactive; negative
same,mutagenic call,"Test System: CHINESE HAMSTER V-79, Strain/Indicator: V-79 (HPRT)/6-THIOGUANINE, Metabolic Activation: NONE, Method: STANDARD PLATE",active; positive
same,mutagenic call,"Test System: E. coli, Strain/Indicator: WP2 uvrA/pKM101, Metabolic Activation: None, Method: Preincubation",inactive; negative
same,mutagenic call,"Test System: E. coli, Strain/Indicator: WP2 uvrA/pKM101, Metabolic Activation: Rat, Liver, S-9, Aroclor 1254 (10%), Method: Preincubation",inactive; negative
Cc1ccc(C2CO2)cc1 (stereo unspecified),mutagenic call,"Test System: E. COLI, Strain/Indicator: WP2 UVRA, Metabolic Activation: NONE, Method: STANDARD PLATE",active; positive
O=[N+]([O-])c1cccc(Br)c1,mutagenic call,[3],inactive; negative
same,mutagenic call,[4],inactive; negative
same,mutagenic call,[5],active; positive
Nc1c(N=Nc2ccc(-c3ccc(NN=C4C=CC(=O)C=C4)cc3)cc2)c(S(=O)(=O)O)cc2c1C(=O)/C(=N/Nc1ccccc1)C(S(=O)(=O)O)=C2,mutagenic call,[6],inactive; negative
same,mutagenic call,[3],inactive; negative
same,mutagenic call,[1],inactive; negative
same,mutagenic call,[7],inactive; negative
same,mutagenic call,"Test System: AMES SALMONELLA TYPHIMURIUM, Strain/Indicator: TA98, Metabolic Activation: RAT, LIVER, S-9, PHENOBARBITAL, Method: STANDARD PLATE",inactive; negative
same,mutagenic call,[8],inactive; negative
same,mutagenic call,[9],inactive; negative
same,mutagenic call,[2],inactive; negative
same,mutagenic call,[10],inactive; negative
same,mutagenic call,"Test System: AMES SALMONELLA TYPHIMURIUM, Strain/Indicator: TA100, Metabolic Activation: RAT, LIVER, S-9, PHENOBARBITAL, Method: STANDARD PLATE",inactive; negative
same,mutagenic call,[11],active; positive
same,mutagenic call,[12],inactive; negative
same,mutagenic call,"Test System: AMES SALMONELLA TYPHIMURIUM, Strain/Indicator: TA1535, Metabolic Activation: RAT LIVER, S-9, AROCLOR 1254 (10%), Method: PREINCUBATION",inactive; negative
same,mutagenic call,[13],active; positive
same,mutagenic call,[14],inactive; negative
same,mutagenic call,[15],inactive; negative
same,mutagenic call,[16],inactive; negative
O=[N+]([O-])c1ccccc1CCl,mutagenic call,[6],inactive; negative
same,mutagenic call,[7],inactive; negative
same,mutagenic call,[4],active; positive
same,mutagenic call,[8],active; positive
same,mutagenic call,[9],active; positive
same,mutagenic call,[10],active; positive
same,mutagenic call,[5],active; positive
same,mutagenic call,[11],active; positive
same,mutagenic call,[12],inactive; negative
same,mutagenic call,[13],active; positive
same,mutagenic call,[14],inactive; negative
same,mutagenic call,[15],inactive; negative
same,mutagenic call,[16],inactive; negative
same,mutagenic call,"Test System: AMES SALMONELLA TYPHIMURIUM, Strain/Indicator: TA1538, Metabolic Activation: NONE, Method: PREINCUBATION",inactive; negative
CC12OOC1Oc1ccccc12 (stereo unspecified),mutagenic call,[9],active; positive
